In patent publication US20260131009A1, “BIFUNCTIONAL PI3K-ALPHA INHIBITORS AND USES THEREOF” (Relay Therapeutics, Inc., priority 2021, published 2026):

How the values were obtained:
MCF10A = MCF10A IC50 assay; type: cell-based; settings: Homo sapiens, MCF-10A; class symbols; key not given
In short: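 MCF10A cells overexpressing hotspot PIK3CA mutations were seeded at 5,000 per well in supplemented DMEM/F12 and adhered overnight (37 °C, 5% CO₂). Compounds were added acoustically as 12-dose 1:3 series, in duplicate, for 2 hours. Cells were lysed 60 min, then incubated 4 hours at room temperature with CisBio phospho-AKT (Ser473) HTRF antibodies and read on an Envision 2105. IC₅₀ for AKT phosphorylation came from Genedata software and was reported as binned categories.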

PI3Kα = PI3Kα (Homo sapiens, UniProt P42336, H1047R); test: ADP-Glo IC50 assay; type: biochemical; settings: class symbols; key not given
PI3Kα, sequence (P42336 whole entry H1047R): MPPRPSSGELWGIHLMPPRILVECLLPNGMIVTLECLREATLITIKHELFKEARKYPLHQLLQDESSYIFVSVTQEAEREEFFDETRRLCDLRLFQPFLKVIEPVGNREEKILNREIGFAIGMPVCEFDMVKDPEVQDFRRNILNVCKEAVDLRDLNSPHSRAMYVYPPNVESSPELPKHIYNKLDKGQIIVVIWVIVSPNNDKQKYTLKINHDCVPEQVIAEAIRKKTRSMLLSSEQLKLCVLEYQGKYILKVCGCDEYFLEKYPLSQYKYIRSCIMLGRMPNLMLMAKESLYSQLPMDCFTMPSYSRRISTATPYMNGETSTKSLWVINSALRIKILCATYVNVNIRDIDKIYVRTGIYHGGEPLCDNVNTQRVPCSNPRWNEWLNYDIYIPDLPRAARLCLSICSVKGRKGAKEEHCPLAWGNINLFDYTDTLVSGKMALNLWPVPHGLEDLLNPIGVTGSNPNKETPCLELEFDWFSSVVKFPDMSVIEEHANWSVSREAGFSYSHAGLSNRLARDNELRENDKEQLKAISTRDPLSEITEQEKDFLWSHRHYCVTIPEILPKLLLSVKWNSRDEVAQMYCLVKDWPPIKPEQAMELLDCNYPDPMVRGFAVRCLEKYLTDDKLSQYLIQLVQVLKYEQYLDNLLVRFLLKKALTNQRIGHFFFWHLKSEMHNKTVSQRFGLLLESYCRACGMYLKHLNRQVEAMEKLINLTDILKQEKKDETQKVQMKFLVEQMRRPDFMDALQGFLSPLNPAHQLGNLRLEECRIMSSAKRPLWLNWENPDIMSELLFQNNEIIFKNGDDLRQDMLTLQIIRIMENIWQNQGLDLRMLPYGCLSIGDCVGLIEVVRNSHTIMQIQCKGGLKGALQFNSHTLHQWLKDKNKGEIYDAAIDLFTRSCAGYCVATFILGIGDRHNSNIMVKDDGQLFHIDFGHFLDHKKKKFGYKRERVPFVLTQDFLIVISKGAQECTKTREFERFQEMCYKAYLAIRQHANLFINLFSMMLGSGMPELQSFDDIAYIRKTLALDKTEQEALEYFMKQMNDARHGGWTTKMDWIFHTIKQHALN
PI3Kα, sequence (P27986 whole entry partner): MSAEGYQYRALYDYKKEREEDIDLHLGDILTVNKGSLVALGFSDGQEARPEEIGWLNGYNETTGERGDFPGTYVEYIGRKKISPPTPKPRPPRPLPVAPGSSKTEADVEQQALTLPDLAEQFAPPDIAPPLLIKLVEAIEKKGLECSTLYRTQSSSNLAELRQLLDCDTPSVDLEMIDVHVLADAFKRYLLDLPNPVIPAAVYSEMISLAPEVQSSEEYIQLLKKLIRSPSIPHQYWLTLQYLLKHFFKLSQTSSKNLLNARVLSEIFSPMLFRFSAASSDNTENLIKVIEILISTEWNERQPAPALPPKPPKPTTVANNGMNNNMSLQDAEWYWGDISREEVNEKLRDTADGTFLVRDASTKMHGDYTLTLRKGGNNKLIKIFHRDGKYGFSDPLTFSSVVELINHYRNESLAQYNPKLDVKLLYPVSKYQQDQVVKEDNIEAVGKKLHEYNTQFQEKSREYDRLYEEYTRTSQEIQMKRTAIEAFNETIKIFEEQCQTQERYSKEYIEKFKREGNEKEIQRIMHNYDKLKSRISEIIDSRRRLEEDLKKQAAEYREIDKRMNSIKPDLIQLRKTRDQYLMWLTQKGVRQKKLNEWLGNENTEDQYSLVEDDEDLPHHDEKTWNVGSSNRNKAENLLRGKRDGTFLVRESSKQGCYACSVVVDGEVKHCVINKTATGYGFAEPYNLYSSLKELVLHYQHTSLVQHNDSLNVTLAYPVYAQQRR

Compound | IC50 (PI3Kα) | IC50 (MCF10A)
Cc1ccccc1Nc1ncc(C(=O)NCCOCCOCCOCCOCCC(=O)N[C@H](C(=O)N2C[C@H](O)C[C@H]2C(=O)N[C@@H](C)c2ccc(-c3scnc3C)cc2)C(C)(C)C)cc1NC(=O)c1csc2ccccc12 [Example I-13] | 1 to 10 µM | 10 to 36 µM
CCCCCCCCCCCCNC(=O)c1cnc(Nc2ccccc2C)c(NC(=O)c2csc3ccccc23)c1 [Example I-28] | 1 to 10 µM | 10 to 36 µM
Cc1ccccc1Nc1ncc(C(=O)NCCCCCCCCCNc2cccc3c2C(=O)N(C2CCC(=O)NC2=O)C3=O)cc1NC(=O)c1csc2ccccc12 (centres unmarked) [Example I-31] | 0.1 to 0.5 µM | 10 to 36 µM
Cc1ccccc1Nc1ncc(C(=O)NCCCCCCCNc2ccc3c(c2)C(=O)N(C2CCC(=O)NC2=O)C3=O)cc1NC(=O)c1csc2ccccc12 (centres unmarked) [Example I-39] | 0.1 to 0.5 µM | 10 to 36 µM
Cc1cc(Br)c2oc(N3CCN(C(=O)CCCCCCCCNC(=O)c4cnc(Nc5ccccc5C)c(NC(=O)c5csc6ccccc56)c4)CC3)cc(=O)c2c1 [Example I-78] | 0.1 to 0.5 µM | 10 to 36 µM
Cc1cc(Br)c2oc(N3CCN(C(=O)CCCCCCCCCNC(=O)c4cnc(Nc5ccccc5C)c(NC(=O)c5csc6ccccc56)c4)CC3)cc(=O)c2c1 [Example I-82] | 0.1 to 0.5 µM | 10 to 36 µM
Cc1cc(Br)c2oc(N3CCN(C(=O)CCCCCCCNC(=O)c4cnc(Nc5ccccc5C)c(NC(=O)c5csc6ccccc56)c4)CC3)cc(=O)c2c1 [Example I-87] | 0.1 to 0.5 µM | < 1 µM

Now from value to compound, other results behind:

IC50 (PI3Kα) | Compound | IC50 (MCF10A)
0.1 to 0.5 µM | Cc1ccccc1Nc1ncc(C(=O)NCCCCCCCCCNc2ccc3c(c2)C(=O)N(C2CCC(=O)NC2=O)C3=O)cc1NC(=O)c1csc2ccccc12 (centres unmarked) [Example I-12] | 10 to 36 µM
< 0.1 µM | Cc1ccccc1Nc1ncc(C(=O)NCCCCCNc2ccc3c(c2)C(=O)N(C2CCC(=O)NC2=O)C3=O)cc1NC(=O)c1csc2ccccc12 (centres unmarked) [Example I-17] | 5 to 10 µM
0.1 to 0.5 µM | Cc1ccccc1Nc1ncc(C(=O)NCCCCCNc2cccc3c2C(=O)N(C2CCC(=O)NC2=O)C3=O)cc1NC(=O)c1csc2ccccc12 (centres unmarked) [Example I-22] | 10 to 36 µM
< 0.1 µM | Cc1ccccc1Nc1ncc(C(=O)NCCCCCCCCCC(N)=O)cc1NC(=O)c1csc2ccccc12 [Example I-24] | 1 to 5 µM
< 0.1 µM | Cc1ccccc1Nc1ncc(C(=O)NCCCCCCCCCC(=O)O)cc1NC(=O)c1csc2ccccc12 [Example I-25] | 1 to 5 µM
< 0.1 µM | Cc1ccccc1Nc1ncc(C(=O)NCC#Cc2ccc3c(c2)CN(C2CCC(=O)NC2=O)C3=O)cc1NC(=O)c1csc2ccccc12 (centres unmarked) [Example I-53] | < 1 µM
< 0.1 µM | Cc1ccccc1Nc1ncc(C(=O)NCCCCNc2ccc3c(c2)C(=O)N(C2CCC(=O)NC2=O)C3=O)cc1NC(=O)c1csc2ccccc12 (centres unmarked) [Example I-54] | 10 to 36 µM
< 0.1 µM | O=C1CCC(N2Cc3cc(C(=O)NCCCCCCCCCNC(=O)c4cc(NC(=O)c5cc(F)cc(C(F)(F)F)c5)c5c(c4)C(=O)N[C@H]5c4cc(F)ccc4Cl)ccc3C2=O)C(=O)N1 (some centres unmarked) [Example I-67] | 10 to 36 µM
< 0.1 µM | O=C(O)CCCCCCCCCNC(=O)c1cnc(Nc2cc(F)ccc2Cl)c(NC(=O)c2csc3ccccc23)c1 [Example I-72] | 10 to 36 µM
